This note sets out measurements from patent publication US20240181049A1, “HARNESSING THE POWER OF MICROBIOTA AND METABOLITES FOR THE TREATMENT OF CANCER” (UTI LIMITED PARTNERSHIP, priority 2019, published 2024).

One assay relates to naïve CD4^+ T cells. As to the kind of experiment: Naive CD4+ T cells with anti-CD3/anti-CD28 coated beads. In kind it is cell-based, mice. From the text:
FIG. 4A-4K: Effect of inosine on T cell differentiation and dependency on classical dendritic cells of ICB therapy efficacy. (a) Scatter plot of untargeted metabolomics data in the serum of anti-CTLA-4 treated, tumor-bearing B.p. monocolonized compared to C.sp. monocolonized and germ-free (GF) mice. Grey circles or dotted grey circles depict inosine or inosine fragments/adducts, respectively. […] (c) Naïve CD4^+ T cells were co-cultured with bone marrow derived dendritic cells and IFN-γ. Quantification of T-bet^+CD3ε^+CD4^+ T cells 48 hours after co-culture in the presence or absence of inosine, A2A receptor inhibitor (ZM241385), cell permeable cAMP (db-cAMP) and protein kinase A inhibitor (RP-8-CPT-CAMPS). (d) Same as (c) without IFN-γ. (e) Representative plot and quantification (left and right panel) of phospho-CREB (Ser133) levels in naïve CD4^+ T cells cultured with anti-CD3/anti-CD28 coated beads for 1 hour in the presence or absence of inosine. (f) Schematic overview of experimental setup to deplete classical dendritic cells during MC38 tumor challenge and anti-CTLA-4 treatment. Intratumoral (g) frequency of CD8^+ T cells (h) IFN-γ^+CD8^+ T cells. (i and j) same as (g and h), but CD4^+ T cells and (k) tumor weight at […]. Data are mean±SEM and pooled from two individual experiments (a-b) n=5-8 samples/group (c-e) 10-15 biological replicates/group (f-k) 10 mice/group. *, P<0.05; **, P<0.01; ***, P<0.001; ****, P<0.0001
FIG. 16A-16J: Context dependent effect of inosine on Th1 T cell differentiation. (a) Naïve CD4^+ T cells were co-cultured with bone marrow derived dendritic cells without IFN-γ. Quantification of T-bet^+CD3e^+CD4^+ T cells 48 hours after co-culture in the presence or absence of inosine and anti-CTLA-4, as indicated. (b) Naïve CD4^+ T cells were cultured anti-CD3/anti-CD28 coated beads at a ratio of 1:1 without IFN-γ for 48 hours. Representative plot and quantification of IL12Rβ2 surface expression on CD4^+ T cells in the presence or absence of inosine (left and right panel). (c) Quantification of T-bet^+CD3e^+CD4^+ T cells 48 hours after co-culture in the presence or absence of inosine, db-cAMP and anti-CTLA-4 as indicated. (d) Naïve, A2AR-deficient CD4^+ T cells were cultured with anti-CD3/anti-CD28 coated beads at a ratio of 1:1 without IFN-γ. Quantification of T-bet^+CD3e^+CD4^+ T cells 48 hours after co-culture in the presence or absence of inosine or db-cAMP (e) Representative plot and quantification (left and right panel) of pCREB expression of anti-CD3/anti-CD28 bead co-cultured CD4^+ T cells in the presence or absence of inosine or db-cAMP 1 hour after stimulation. Analysis through flow cytometry. (f and g) Naïve, wild type CD4^+ T cells were cultured with anti-CD3/anti-CD28 coated beads at a ratio of 1:1. Il12rb2 and Ifng gene transcripts (normalized to Gapdh) were evaluated 24 and 48 hours following inosine (1 mM) stimulation. Expression was normalized to cells treated with medium. Analysis through quantitative PCR assay (h) Naïve CD4^+ T cells were cultured with anti-CD3/anti-CD28 coated beads at a ratio of 1:1 without IFN-γ for 24 hours. Then inosine or vehicle was added at the indicated concentrations for another 48 hours before T cell differentiation and activation was assessed. (i) Adenosine concentrations in the duodenal-, jejunal- or cecal content of B.p. monocolonized mice and in the serum of B.p. or C.sp. monocolonized anti-CTLA-4 treated mice. (j) Naïve CD4^+ T cells were cultured with anti-CD3/anti-CD28 coated beads at a ratio of 1:1 without IFN-γ for 24 hours. Adenosine or was added then in the indicated concentrations for another 48 hours followed by T cell differentiation and activation was assessed through flow cytometry. […]

The subject of assay [1] is A2AR-deficient CD4^+ T cells. As to the kind of experiment: A2AR-deficient naive CD4+ T cells with anti-CD3/anti-CD28 coated beads. In kind it is cell-based, mice. The procedure:
FIG. 16A-16J: Context dependent effect of inosine on Th1 T cell differentiation. (a) Naïve CD4^+ T cells were co-cultured with bone marrow derived dendritic cells without IFN-γ. Quantification of T-bet^+CD3e^+CD4^+ T cells 48 hours after co-culture in the presence or absence of inosine and anti-CTLA-4, as indicated. (b) Naïve CD4^+ T cells were cultured anti-CD3/anti-CD28 coated beads at a ratio of 1:1 without IFN-γ for 48 hours. Representative plot and quantification of IL12Rβ2 surface expression on CD4^+ T cells in the presence or absence of inosine (left and right panel). (c) Quantification of T-bet^+CD3e^+CD4^+ T cells 48 hours after co-culture in the presence or absence of inosine, db-cAMP and anti-CTLA-4 as indicated. […] Quantification of T-bet^+CD3e^+CD4^+ T cells 48 hours after co-culture in the presence or absence of inosine or db-cAMP (e) Representative plot and quantification (left and right panel) of pCREB expression of anti-CD3/anti-CD28 bead co-cultured CD4^+ T cells in the presence or absence of inosine or db-cAMP 1 hour after stimulation. […] Il12rb2 and Ifng gene transcripts (normalized to Gapdh) were evaluated 24 and 48 hours following inosine (1 mM) stimulation. […] Analysis through quantitative PCR assay (h) Naïve CD4^+ T cells were cultured with anti-CD3/anti-CD28 coated beads at a ratio of 1:1 without IFN-γ for 24 hours. […]

Turning to `OC[C@H]1O[C@@H](n2cnc3c(O)ncnc32)[C@H](O)[C@@H]1O` [inosine], the “phosphorylation of CREB (Ser133)” value in the assay on naïve CD4^+ T cells (1 hour) is on record as “led to phosphorylation”. In the assay on naïve CD4^+ T cells (bead-activated naïve T cells, no DCs), the Th1 differentiation entry is reported as “enhanced Th1 differentiation, even in the absence of IFN-γ”. Besides, in the assay with naïve CD4^+ T cells (inosine 1 mM, 24 and 48 hours, quantitative PCR), the “Il12rb2 and Ifng gene transcription” value is “sustained upregulation”. The “Th1 activation, inosine dose response” value with naïve CD4^+ T cells (physiological concentrations observed in sera of B.p. but not C.sp. monocolonized mice) is “sufficient to induce Th1 activation”. In the assay with naïve CD4^+ T cells (without IFN-γ, 48 hours), the IL12Rβ2 surface expression result is recorded as “upregulation of IL12Rβ2”. Moreover, the “Th1 differentiation and phosphorylation of CREB” value in assay [1] is “absent”.
